Results published in USRE49735E1 (BRISTOL-MYERS SQUIBB COMPANY, priority 2010, dated 2023).
pEC50: −log10 of the molar value. Where “and” joins values, the source holds several entries; their conditions need not be identical. Identical values can stand only once.

Target: human mGluR5A (Homo sapiens, UniProt P41594)
Test: mGluR5 FLIPR Assay
Type: cell-based
Settings: positive modulator activity; HEK293 (ZF) cells with human mGluR5A and rat GLAST; Ca++ response to ~EC10 glutamate
Description: HEK293 (ZF) cells stably transfected with human mGluR5A (pIRES neo) and the rat glutamate-aspartate transporter (GLAST; pIRES puro) are grown in a monolayer culture at 37° C. in 5% CO2 and fed with Minimum Essential Medium (MEM) supplemented with 10% dialysed fetal bovine serum. 24 hours prior to assay, cells are enzymatically dissociated from the culture flask (Trypsin, 0.25%), spun down (1000 rpm, 3 min), resuspended, and plated on Greiner black clear bottomed PDL-coated 384-well plates at a density of 30 thousand cells/well. […] Plates are incubated in dye at 37° C. in 5% CO2 for 60 minutes prior to delivery of test compounds in assay buffer. Test compounds are incubated with cells in the presence of dye for 10 minutes prior to being read on the FLIPR platform (Molecular Devices). A Ca^++ signal is induced in the assay plates via the delivery of an ˜EC10 concentration of the endogenous agonist 1-glutamate; images are acquired at 1 Hz for 100 seconds post-delivery of agonist stimulus. Positive modulator activity (i.e. the ability of test compounds to increase the Ca^++ response to a sub-maximal concentration of agonist) is normalized to a saturating concentration of a known mGluR5 PAM run in each assay plate. An EC50 concentration of test compounds is derived from 4-parameter logistic curve fits of transformed fluoresence data via proprietary software suite.

human mGluR5A, sequence (P41594 21-1180 isoform P41594-2): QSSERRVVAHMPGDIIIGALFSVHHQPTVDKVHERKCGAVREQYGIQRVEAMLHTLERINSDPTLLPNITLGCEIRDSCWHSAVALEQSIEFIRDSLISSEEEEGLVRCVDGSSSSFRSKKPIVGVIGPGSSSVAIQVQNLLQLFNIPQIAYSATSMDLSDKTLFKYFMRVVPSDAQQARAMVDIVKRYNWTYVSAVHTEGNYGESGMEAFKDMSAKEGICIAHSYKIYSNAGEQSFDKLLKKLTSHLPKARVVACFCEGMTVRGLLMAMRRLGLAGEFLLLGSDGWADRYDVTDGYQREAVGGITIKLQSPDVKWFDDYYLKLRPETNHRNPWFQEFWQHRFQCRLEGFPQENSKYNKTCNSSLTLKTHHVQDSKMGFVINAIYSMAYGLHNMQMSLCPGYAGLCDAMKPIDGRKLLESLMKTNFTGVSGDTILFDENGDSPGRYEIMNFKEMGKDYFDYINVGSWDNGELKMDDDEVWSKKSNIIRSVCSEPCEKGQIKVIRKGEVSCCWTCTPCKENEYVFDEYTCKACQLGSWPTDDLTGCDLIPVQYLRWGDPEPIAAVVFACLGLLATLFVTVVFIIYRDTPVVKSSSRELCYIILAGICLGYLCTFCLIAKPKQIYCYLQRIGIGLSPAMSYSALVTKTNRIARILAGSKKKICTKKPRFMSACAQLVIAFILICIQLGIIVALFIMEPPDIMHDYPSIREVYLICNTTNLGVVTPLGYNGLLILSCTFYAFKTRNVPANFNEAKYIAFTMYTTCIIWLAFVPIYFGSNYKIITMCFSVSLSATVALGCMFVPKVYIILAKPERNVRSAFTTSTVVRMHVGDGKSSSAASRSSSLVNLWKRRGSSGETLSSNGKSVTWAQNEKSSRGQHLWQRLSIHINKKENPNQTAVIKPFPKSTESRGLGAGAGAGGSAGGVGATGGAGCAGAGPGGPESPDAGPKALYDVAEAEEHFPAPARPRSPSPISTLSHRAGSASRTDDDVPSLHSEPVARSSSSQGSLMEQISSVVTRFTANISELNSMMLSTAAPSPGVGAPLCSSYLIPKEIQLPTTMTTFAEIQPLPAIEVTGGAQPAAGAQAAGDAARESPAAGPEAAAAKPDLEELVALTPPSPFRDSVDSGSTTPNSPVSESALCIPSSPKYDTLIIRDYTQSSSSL

SMILES	pEC50
C[C@]1(c2cncc(C#Cc3ccccc3)c2)NC(=O)O[C@@H]1c1ccccc1 (single isomer, unassigned) [Example 138]	> 7.00 and 9.37
O=C1N[C@H](c2cc(C#Cc3ccccc3)ccn2)[C@@H](c2ccc(F)cc2)O1 (single isomer, unassigned) [Example 297]	> 7.00 and 8.33
O=C1N[C@@H](c2cc(C#Cc3ccccc3)ccn2)[C@H](c2ccc(F)cc2)O1 (single isomer, unassigned) [Example 298]	6.00 to 7.00 and 6.63
O=C1N[C@@H](c2nc(C#Cc3ccccc3)ccc2F)[C@H](c2ccccc2)O1 (single isomer, unassigned) [Example 306]	< 5.52
O=C1N[C@@H](c2cccc(C#Cc3cccc(F)c3)n2)[C@H](c2ccc(F)cc2F)O1 (single isomer, unassigned) [Example 312]	< 5.52
O=C1N[C@@H](c2cncc(C#Cc3ccccc3)c2)[C@H](c2ccnnc2)O1 (single isomer, unassigned) [Example 321]	< 6.00
O=C1N[C@@H](c2cncc(C#Cc3ccccc3)c2)[C@@H](c2ccnnc2)O1 (single isomer, unassigned) [Example 323]	< 6.00
O=C1N[C@@H](c2cncc(C#Cc3ccccc3)c2)[C@H](c2cc(Cl)ccc2Cl)O1 (single isomer, unassigned) [Example 325]	< 5.82
O=C1N[C@H](c2cncc(C#Cc3ccccc3)c2)[C@@H](c2cc(Cl)ccc2Cl)O1 (single isomer, unassigned) [Example 326]	< 5.52
O=C1N[C@H](c2cncc(C#Cc3ccccc3)c2)[C@H](c2cc(Cl)ccc2Cl)O1 (single isomer, unassigned) [Example 327]	< 6.00
O=C1N[C@@H](c2cncc(C#Cc3ccccc3)c2)[C@@H](c2cc(Cl)ccc2Cl)O1 (single isomer, unassigned) [Example 328]	< 6.00
O=C1N[C@@H](c2cncc(C#Cc3ccccc3)c2)[C@H](c2cccc(Cl)c2Cl)O1 (single isomer, unassigned) [Example 329]	< 6.00
O=C1N[C@H](c2cncc(C#Cc3ccccc3)c2)[C@H](c2cccc(Cl)c2Cl)O1 (single isomer, unassigned) [Example 331]	< 6.00
O=C1N[C@@H](c2cncc(C#Cc3ccccc3)c2)[C@@H](c2cccc(Cl)c2Cl)O1 (single isomer, unassigned) [Example 332]	< 6.00
COc1ccccc1[C@@H]1OC(=O)N[C@H]1c1cncc(C#Cc2ccccc2)c1 (single isomer, unassigned) [Example 333]	< 6.00
COc1ccccc1[C@H]1OC(=O)N[C@@H]1c1cncc(C#Cc2ccccc2)c1 (single isomer, unassigned) [Example 334]	< 5.52
COc1ccccc1[C@@H]1OC(=O)N[C@@H]1c1cncc(C#Cc2ccccc2)c1 (single isomer, unassigned) [Example 335]	< 6.00
COc1ccccc1[C@H]1OC(=O)N[C@H]1c1cncc(C#Cc2ccccc2)c1 (single isomer, unassigned) [Example 336]	< 6.00
C[C@@]1(c2cncc(C#Cc3ncccc3F)c2)NC(=O)O[C@H]1c1ccc(F)cc1 (single isomer, unassigned) [Example 343]	< 6.00
O=C1N[C@@H](c2cncc(C#Cc3ccccc3)c2)[C@H](c2cccs2)O1 (single isomer, unassigned) [Example 345]	< 6.00
O=C1N[C@H](c2cncc(C#Cc3ccccc3)c2)[C@@H](c2cccs2)O1 (single isomer, unassigned) [Example 346]	> 7.00 and 7.88
O=C1N[C@H](c2cc(C#Cc3cccc(Cl)c3)ccn2)[C@@H](c2ccc(F)cc2)O1 (single isomer, unassigned) [Example 347]	< 6.00
O=C1N[C@@H](c2cc(C#Cc3cccc(Cl)c3)ccn2)[C@H](c2ccc(F)cc2)O1 (single isomer, unassigned) [Example 348]	< 6.00
O=C1N[C@H](c2cc(C#Cc3ccc(Cl)cc3)ccn2)[C@@H](c2ccc(F)cc2)O1 (single isomer, unassigned) [Example 349]	6.00 to 7.00 and 6.52
O=C1N[C@@H](c2cc(C#Cc3ccccc3Cl)ccn2)[C@H](c2ccc(F)cc2)O1 (single isomer, unassigned) [Example 352]	< 6.00
O=C1N[C@@H](c2cc(C#Cc3ccccc3F)ccn2)[C@H](c2ccc(F)cc2)O1 (single isomer, unassigned) [Example 354]	6.00 to 7.00 and 6.41
O=C1N[C@@H](c2cc(C#Cc3ccc(F)cc3)ccn2)[C@H](c2ccc(F)cc2)O1 (single isomer, unassigned) [Example 358]	< 6.00
O=C1N[C@H](c2cncc(C#Cc3ccccc3)c2)[C@@H](c2ccc(Cl)cc2)O1 (single isomer, unassigned) [Example 360]	> 7.00 and 8.70
O=C1N[C@@H](c2cncc(C#Cc3ccccc3)c2)[C@H](c2cccc(Cl)c2)O1 (single isomer, unassigned) [Example 361]	< 6.00

Second part, the compound after the results:

pEC50	SMILES
< 6.00	O=C1N[C@@H](c2cccc(C#Cc3ccccc3)n2)[C@H](c2ccc(F)cc2)O1 (single isomer, unassigned) [Example 136]
6.00 to 7.00	C[C@@]1(c2cncc(C#Cc3ccccc3)c2)NC(=O)O[C@H]1c1ccccc1 (single isomer, unassigned) [Example 137]
< 6.00	O=C1N[C@H](c2nc(C#Cc3ccccc3)ccc2F)[C@@H](c2ccccc2)O1 (single isomer, unassigned) [Example 305]
< 6.00	O=C1N[C@H](c2cccc(C#Cc3ccccc3)n2)[C@@H](c2ccccc2F)O1 (single isomer, unassigned) [Example 307]
< 6.00	O=C1N[C@@H](c2cccc(C#Cc3ccccc3)n2)[C@H](c2ccccc2F)O1 (single isomer, unassigned) [Example 308]
> 7.00	O=C1N[C@H](c2cccc(C#Cc3ccccc3)n2)[C@@H](c2ccc(F)cc2F)O1 (single isomer, unassigned) [Example 309]
< 6.00	O=C1N[C@@H](c2cccc(C#Cc3ccccc3)n2)[C@H](c2ccc(F)cc2F)O1 (single isomer, unassigned) [Example 310]
> 7.00	O=C1N[C@H](c2cccc(C#Cc3cccc(F)c3)n2)[C@@H](c2ccc(F)cc2F)O1 (single isomer, unassigned) [Example 311]
6.00 to 7.00	O=C1N[C@H](c2cccc(C#Cc3ccccc3)n2)[C@@H](c2c(F)cc(F)cc2F)O1 (single isomer, unassigned) [Example 313]
< 6.00	O=C1N[C@@H](c2cccc(C#Cc3ccccc3)n2)[C@H](c2c(F)cc(F)cc2F)O1 (single isomer, unassigned) [Example 314]
< 6.00	O=C1N[C@H](c2cccc(C#Cc3ccccc3)n2)[C@@H](c2cc(F)cc(F)c2)O1 (single isomer, unassigned) [Example 315]
< 6.00	O=C1N[C@@H](c2cccc(C#Cc3ccccc3)n2)[C@H](c2cc(F)cc(F)c2)O1 (single isomer, unassigned) [Example 316]
< 6.00	O=C1N[C@@H](c2cncc(C#Cc3ccccc3)c2)[C@H](c2ccncn2)O1 (single isomer, unassigned) [Example 317]
> 7.00	O=C1N[C@H](c2cncc(C#Cc3ccccc3)c2)[C@@H](c2ccncn2)O1 (single isomer, unassigned) [Example 318]
< 6.00	O=C1N[C@@H](c2cncc(C#Cc3ccccc3)c2)[C@@H](c2ccncn2)O1 (single isomer, unassigned) [Example 319]
> 7.00	O=C1N[C@H](c2cncc(C#Cc3ccccc3)c2)[C@H](c2ccncn2)O1 (single isomer, unassigned) [Example 320]
> 7.00	O=C1N[C@H](c2cncc(C#Cc3ccccc3)c2)[C@@H](c2ccnnc2)O1 (single isomer, unassigned) [Example 322]
> 7.00	O=C1N[C@H](c2cncc(C#Cc3ccccc3)c2)[C@H](c2ccnnc2)O1 (single isomer, unassigned) [Example 324]
> 7.00	O=C1N[C@H](c2cncc(C#Cc3ccccc3)c2)[C@@H](c2cccc(Cl)c2Cl)O1 (single isomer, unassigned) [Example 330]
> 7.00	C[C@@]1(c2cncc(C#Cc3ncccc3F)c2)NC(=O)O[C@H]1c1ccc(F)cc1 (single isomer, unassigned) [Example 344]
6.00 to 7.00	O=C1N[C@H](c2cc(C#Cc3ccccc3Cl)ccn2)[C@@H](c2ccc(F)cc2)O1 (single isomer, unassigned) [Example 351]
> 7.00	O=C1N[C@H](c2cc(C#Cc3ccccc3F)ccn2)[C@@H](c2ccc(F)cc2)O1 (single isomer, unassigned) [Example 353]
> 7.00	O=C1N[C@H](c2cc(C#Cc3cccc(F)c3)ccn2)[C@@H](c2ccc(F)cc2)O1 (single isomer, unassigned) [Example 355]
6.00 to 7.00	O=C1N[C@@H](c2cc(C#Cc3cccc(F)c3)ccn2)[C@H](c2ccc(F)cc2)O1 (single isomer, unassigned) [Example 356]
> 7.00	O=C1N[C@H](c2cc(C#Cc3ccc(F)cc3)ccn2)[C@@H](c2ccc(F)cc2)O1 (single isomer, unassigned) [Example 357]
6.00 to 7.00	O=C1N[C@@H](c2cncc(C#Cc3ccccc3)c2)[C@H](c2ccc(Cl)cc2)O1 (single isomer, unassigned) [Example 359]
